Laboratory results: patent US20160257697A1, “THIOPHENE-SUBSTITUTED TETRACYCLIC COMPOUNDS AND METHODS OFUSE THEREOF FOR THE TREATMENT OF VIRAL DISEASES” (priority 2013, published 2016)
Read-outs that look alike come from different tables or passages of the source.

Columns and labels:
Experiment in all cases: microbe, parasite or virus in culture
Assay type in all cases: cell-based, Hepatitis C virus (HCV)
Conditions in all cases: Replicon Assay A
HCV replicon 1AY93H = system: HCV replicon 1AY93H
Method in brief: (§1)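 HCV replicon RNA levels were quantified by TaqMan RT-PCR after 3-day compound exposure (0.5% DMSO, 5% FBS). Cyclophilin RNA, co-amplified in the same reaction, served as endogenous control; Ct values were converted to RNA amounts using linear regression standard curves.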

HCV replicon 1A = system: HCV replicon 1A
Method in brief: as §1

HCV replicon 2B = system: HCV replicon 2B
Method in brief: as §1

[1] = read-out: 1A Y93H IC50, HCV replicon 1A Y93H
[2] = read-out: 2B IC50, HCV replicon 2B
[3] = Hepatitis C virus, read-out: 1A Y93H IC50, HCV replicon 1A Y93H
[4] = Hepatitis C virus, HCV replicon 1A
[5] = Hepatitis C virus, read-out: 2B IC50, HCV replicon 2B
[6] = read-out: 1A Y93H IC50, replicon 1AY93H

COC(=O)N[C@H](C(=O)N1CCC[C@H]1c1ncc(-c2ccc3c(c2)OC(c2cc4ccccc4s2)n2c-3cc3cc(-c4cnc([C@@H]5C[C@H]6C[C@H]6N5C(=O)[C@@H](NC(=O)OC)C(C)C)[nH]4)ccc32)[nH]1)C(C)C (single isomer, unassigned) [Compound 610]
IC50 (HCV replicon 1AY93H; [1]): 0.453 nM | IC50 (HCV replicon 1A; HCV replicon 1A): 0.0124 nM | IC50 (HCV replicon 2B; [2]): 0.272 nM

CCN(CC)[C@@H](C(=O)N1CCC[C@H]1c1ncc(-c2ccc3c(c2)cc2n3C(c3cc4ccccc4s3)Oc3cc(-c4cnc([C@@H]5C[C@@H](F)CN5C(=O)[C@@H](c5ccccc5)N(CC)CC)[nH]4)ccc3-2)[nH]1)c1ccccc1 (mixture of isomers) [Compound 808]
IC50 (HCV replicon 1AY93H; [3]): 1.2 nM | IC50 (HCV replicon 1A; [4]): 0.026 nM | IC50 (HCV replicon 2B; [5]): 0.32 nM

COC(=O)N[C@H](C(=O)N1C2C[C@@H]2C[C@H]1c1nc(-c2ccc3c(c2)cc2n3C(c3ccc(Cl)s3)Oc3cc(-c4c[nH]c([C@@H]5C[C@H]6C[C@H]6N5C(=O)[C@@H](NC(=O)OC)C(C)C)n4)ccc3-2)c[nH]1)C(C)C (mixture of isomers) [Compound 710]
IC50 (HCV replicon 1AY93H; [3]): 0.2 nM | IC50 (HCV replicon 1A; [4]): 0.05 nM | IC50 (HCV replicon 2B; [5]): 1.08 nM

COC(=O)N[C@H](C(=O)N1CCC[C@H]1c1nc(-c2ccc3c(c2)OC(c2ccc(C4CC4)s2)n2c-3cc3cc(-c4c[nH]c([C@@H]5CCCN5C(=O)[C@@H](NC(=O)OC)C5CCOCC5)n4)ccc32)c[nH]1)C1CCOCC1 (mixture of isomers) [Compound 728]
IC50 (HCV replicon 1AY93H; [3]): 0.02 nM | IC50 (HCV replicon 1A; [4]): 0.022 nM | IC50 (HCV replicon 2B; [5]): 0.022 nM

CCc1ccc(C2Oc3cc(-c4cnc([C@@H]5CCCN5C(=O)C(NC(=O)OC)C5CCOC(C)(C)C5)[nH]4)cc(F)c3-c3cc4cc(-c5cnc([C@@H]6CCCN6C(=O)C(NC(=O)OC)C6CCOC(C)(C)C6)[nH]5)ccc4n32)s1 (single isomer, unassigned) [Compound 292]
IC50 (HCV replicon 1AY93H; [6]): 0.044 nM | IC50 (HCV replicon 1A; replicon 1A): 0.0027 nM | IC50 (HCV replicon 2B; read-out: 2B IC50, replicon 2B): 0.106 nM

COC(=O)NC(C(=O)N1CCC[C@H]1c1ncc(-c2ccc3c(c2)cc2n3C(c3ccc(C(C)C)s3)Oc3cc(-c4cnc([C@@H]5CCCN5C(=O)[C@@H](NC(=O)OC)C(C)C)[nH]4)cc(F)c3-2)[nH]1)C1C[C@@H](C)O[C@@H](C)C1 (single isomer, unassigned) [Compound 232]
IC50 (HCV replicon 1AY93H; [6]): 0.2 nM | IC50 (HCV replicon 1A; replicon 1A): 0.0027 nM | IC50 (HCV replicon 2B; read-out: 2B IC50, replicon 2B): 0.63 nM

COCc1ccc(C2Oc3cc(-c4cnc([C@@H]5CCCN5C(=O)[C@@H](NC(=O)OC)C(C)C)[nH]4)cc(F)c3-c3cc4cc(-c5cnc([C@@H]6CCCN6C(=O)[C@@H](NC(=O)OC)[C@@H]6C[C@@H](C)O[C@@H](C)C6)[nH]5)ccc4n32)s1 (single isomer, unassigned) [Compound 535]
IC50 (HCV replicon 1AY93H; [1]): 0.0295 nM | IC50 (HCV replicon 1A; HCV replicon 1A): 0.00895 nM | IC50 (HCV replicon 2B; [2]): 0.0736 nM

COC(=O)NC(C(=O)N1CCC[C@H]1c1ncc(-c2ccc3c(c2)cc2n3C(c3ccc(CC(F)(F)F)s3)Oc3cc(-c4cnc([C@@H]5CCCN5C(=O)[C@@H](NC(=O)OC)C(C)C)[nH]4)cc(F)c3-2)[nH]1)C1C[C@@H](C)O[C@@H](C)C1 (stereo partly drawn) [Compound 381]
IC50 (HCV replicon 1AY93H; Hepatitis C virus, read-out: 1A Y93H IC50 (nM), replicon 1AY93H): 0.141 nM | IC50 (HCV replicon 1A; Hepatitis C virus, replicon 1A): 0.0014 nM | IC50 (HCV replicon 2B; Hepatitis C virus, read-out: 2B IC50 (nM), replicon 2B): 0.181 nM

CCc1ccc(C2Oc3cc(-c4cnc([C@@H]5CCCN5C(=O)[C@@H](NC(=O)OC)C(C)C)[nH]4)cc(F)c3-c3cc4cc(-c5cnc([C@@H]6C[C@H]7C[C@H]7N6C(=O)C(NC(=O)OC)C6CCOC(C)(C)C6)[nH]5)ccc4n32)s1 (single isomer, unassigned) [Compound 197]
IC50 (HCV replicon 1AY93H; [6]): 0.1 nM | IC50 (HCV replicon 1A; replicon 1A): 0.0021 nM | IC50 (HCV replicon 2B; read-out: 2B IC50, replicon 2B): 0.47 nM

COC(=O)N[C@H](C(=O)N1CCC[C@H]1c1ncc(-c2ccc3c(c2)OC(c2ccc(C4CC4)s2)n2c-3c(C)c3cc(-c4cnc([C@@H]5CCCN5C(=O)[C@@H](NC(=O)OC)C(C)C)[nH]4)ccc32)[nH]1)C(C)C (single isomer, unassigned) [Compound 21]
IC50 (HCV replicon 1AY93H; [6]): 0.22 nM | IC50 (HCV replicon 1A; Hepatitis C virus, replicon 1A): 0.0019 nM | IC50 (HCV replicon 2B; read-out: 2B IC50, replicon 2B): 0.26 nM

CCc1ccc(C2Oc3cc(-c4c[nH]c([C@@H]5CCCN5C(=O)[C@@H](NC(=O)OC)C(C)C)n4)ccc3-c3cc4c(F)c(-c5c[nH]c([C@@H]6CCCN6C(=O)C(NC(=O)OC)C6C[C@@H](C)O[C@@H](C)C6)n5)ccc4n32)s1 (single isomer, unassigned) [Compound 360]
IC50 (HCV replicon 1AY93H; [6]): 3.56 nM | IC50 (HCV replicon 1A; Hepatitis C virus, replicon 1A): 0.0025 nM | IC50 (HCV replicon 2B; read-out: 2B IC50, replicon 2B): 2.52 nM
